Structures are written as SMILES. Converted amounts (≈) assume the structure as drawn.

Common to all, as to type: physicochemical
Data set [1] is described as follows: Particle size distribution by laser diffraction (Mastersizer 2000, dry sampling). On the procedure:
For each SLP composition, the particle size distribution is measured by laser diffractometry, using a dry sampling system with a suitable SOP (Standard Operating Procedure), (Scirocco®, Mastersizer 2000, Malvern, UK).
The size distributions are expressed in terms of the mass median diameter d(0.5), i.e. the size in microns which 50% of the sample is smaller and 50% is larger, and in terms of the volume (mass) mean diameter D[4,3].

The nature of data set [2]: In vitro deposition test, FPD/FPF by Multi-stage Liquid Impinger (tobramycin formulations). Particulars: Table 11, loaded dose = 15 mg, Cyclohaler 100 l/min 2.4 s, n = 3. As to the method:
The Fine Particle Dose has been determined by the method described in the European Pharmacopoeia 4 for the aerodynamic assessment of fine particle, using Apparatus C—Multi-stage Liquid Impinger (MsLI) […] The flow rate was adjusted to a pressure drop of 4 kPa, as typical for inspiration by a patient, resulting in a flow rate of 100 l/min during 2.4 seconds. At least 3 FPD determinations were performed on each formulation and analysis were carried out by a suitable and validated analytical HPLC method. In order to increase the UV absorptivity of the molecule, a derivatization method was applied. The suitable and validated quantification method is described in the USP 25. The HPLC system consisted of a High Performance Liquid Chromatography system (HP 1100 series, Agilent technologies, Belgium), equipped with a quartenary pump, an autosampler and a variable wavelength UV detector set at 360 nm. The separation system was a 39 cm×3.9 mm stainless steel (5 μm particle size) reversed-phase C18 column (Alltima, Alltech, Belgium). Samples of 20 μl volume were injected. The mobile phase was prepared by dissolving 2 g of Tris(hydroxymethyl)aminomethane in 800 ml of water. […] The mass of test substance deposited on each stage was determined from the HPLC analysis of the recovered solutions. […] It is considered to be directly proportional to the amount of drug able to reach the pulmonary tract in vivo, and consequently, the higher the value FPD, the higher the estimated lung deposition.

The nature of data set [3]: Solubility in isopropanol. To be noted: organic solvent or mixture.

Turning to `NC[C@H]1O[C@H](O[C@H]2[C@H](O)[C@@H](O[C@H]3O[C@H](CO)[C@@H](O)[C@H](N)[C@H]3O)[C@H](N)C[C@@H]2N)[C@H](N)C[C@@H]1O` [Tobra μ, tobramycin], in data set [1] (Table 10, Example 13, dry powder form, mean ± S.D., n = 3), the “d (0.5)” value turned out to be 1.29 ± 0.02 μm. The “D [4, 3]” value in data set [1] (Table 10, Example 13, dry powder form, n = 3) is 1.54 ± 0.01 μm. For the same compound, in data set [1] (Table 10, Example 13, n = 3), the “% <5.0 μm” value turned out to be 99.3 ± 0.2%. Besides, in data set [2], the FPD is reported as 7.2 ± 0.6 mg and the FPF is recorded as 48.1 ± 0.4%. Also, the FPF entry in data set [2] (listed as uncoated micronized tobramycin) is listed as “around 48%”. Further, in data set [3], the solubility stood at 50 µg/mL (≈ 107 µM).

The values are drawn from patent US20100119587A1, “SOLID LIPIDIC […] AS PHARMACEUTICALLY ACCEPTABLE FILLERS OR […] FOR INHALATION” (UNIVERSITE LIBRE DE BRUXELLES, priority 2004, published 2010).
